Measured values reported in patent publication US4189499A, “Lysine 4-allyloxy-3-chlorophenylacetate and method of its preparation” (priority 1979, dated 1980).
Where “and” joins values, the source holds several entries; their conditions need not be identical. Identical values can stand only once. Entries after “also recorded” stand apart in the source; their conditions may differ. Counter-ions that a name gives are not always drawn. Like-named read-outs stand apart in the source and are kept apart here.

Experiments:
[1] = Pharmacokinetics from plasma levels after oral, rectal and intramuscular administration in rabbits; type: in vivo, rabbit; details: for Ka / t1/2α / CL/F / k el / Cmax / Vd/F / half-life / Tmax: ± E.S.M.; for CL/F / k el / Cmax / Vd/F / half-life / Tmax: rabbit, plasma; for Cmax: read-out: Cmax; for Vd/F: read-out: Vdβ; for half-life: read-out: t1/2β; for Tmax: read-out: tmax (converted)
Method: (§1) The following pharmacological experimentation was carried out in order to estimate the comparative absorption and bioavailability through various administration routes in rabbits of Alclofenac acid and its lysine salt.

[2] = Solubility; type: physicochemical; details: in words, solvent as stated
[3] = cited from earlier work
[4] = Extent of availability after different routes, intravenous administration as reference; type: in vivo, rabbit; details: i.v. as reference
Method: as §1

[5] = pH of aqueous solution; type: physicochemical; details: aqueous solution as prepared
[6] = test system: rabbit dorsal long muscle; assay: Local tolerability after intramuscular injection, muscle removed at 24 hours, irritation by arbitrary scores; type: in vivo; parameters: scale not given here
Method: Such a tolerability was estimated after injection of equivalent solutions of the various preparations, effected in the rabbit dorsal long muscle, removing muscle 24 hours after injection and estimating the degree of induced irritation through arbitrary scores.

[7] = Stability and hygroscopicity; type: physicochemical; details: for Hygroscopicity: isolated solid; for Stability of the solution: in words
[8] = General tolerability by route of administration; type: in vivo; details: intravenous or intramuscular; listed as Mono-ethanolamine solution
[9] = intravenous route, prior knowledge; cited from earlier work
[10] = 100 mg/ml (as acid), 0.5 ml injected
[11] = 131 mg/ml (as acid), 0.25 ml injected
[12] = listed as Mono-ethanolamine solution
[13] = 100 mg/ml (as acid), 0.25 ml injected

Compound `C=CCOc1ccc(CC(=O)O)cc1Cl` [Alclofenac, 4-allyloxy-3-chlorophenylacetic acid, reference compound] has a Ka ([1]; P.OS 90 mg/kg) of 0.0146 ± 0.0018 min⁻¹, a t1/2α ([1]; P.OS 90 mg/kg) of 0.85 ± 0.083333 h and a Ka ([1]; RECTAL 100 mg/kg) of 0.053 ± 0.10 min⁻¹. For the same compound, the t1/2α ([1]; RECTAL 100 mg/kg) was 0.233 ± 0.05 h, the “absorption, in words” value ([1]; oral and rectal route, rabbits) was “well absorbed through the oral and rectal route” and the CL/F ([1]; 100 mg/kg, RECTAL 100 mg/kg) was 0.54 ± 0.04 mL/min/kg. For the same compound, the k el ([1]; 100 mg/kg, RECTAL 100 mg/kg) was 3.83e-05 s⁻¹, the Cmax ([1]; 100 mg/kg, RECTAL 100 mg/kg) was 425 ± 11.9 µg/mL and the Vd/F ([1]; 100 mg/kg, RECTAL 100 mg/kg) was 0.274 ± 0.06 L/kg. The half-life ([1]; 100 mg/kg, RECTAL 100 mg/kg) was 5.12 ± 0.583 h, the Tmax ([1]; 100 mg/kg, RECTAL 100 mg/kg) was 1.1 h and the CL/F ([1]; po, 90 mg/kg, P.OS 90 mg/kg) was 0.64 ± 0.06 mL/min/kg. The k el ([1]; po, 90 mg/kg, P.OS 90 mg/kg) was 3e-05 s⁻¹, the Cmax ([1]; po, 90 mg/kg, P.OS 90 mg/kg) was 358 ± 47.8 µg/mL and the Vd/F ([1]; po, 90 mg/kg, P.OS 90 mg/kg) was 0.326 ± 0.045 L/kg. For the same compound, the half-life ([1]; po, 90 mg/kg, P.OS 90 mg/kg) was 6.9 ± 0.667 h, the Tmax ([1]; po, 90 mg/kg, P.OS 90 mg/kg) was 2.88 h and the Solubility [2] was “insoluble in the physiological fluids; also recorded: insolubility”. For the same compound, the antiinflammatory properties ([3]; in vivo) was “antiinflammatory properties”, the analgesic activity ([3]; versus acetylsalicylic acid) was “marked analgesic activity, higher than acetylsalicylic acid” and the “% Availability (AUC o → 4h)” value ([4]; P.O. 90 mg/kg, 0-4 h, 90 mg/kg, 240 min) was 42.4%. For the same compound, the “% Availability (practical AUC)” value ([4]; P.O. 90 mg/kg, 90 mg/kg) was 84.0%, the “% Availability (theoretical AUC)” value ([4]; P.O. 90 mg/kg, 90 mg/kg) was 89.2% and the “% Availability (AUC o → 2h)” value ([4]; Rectal 100 mg/kg, 0-2 h, 100 mg/kg, 120 min) was 83.24%. For the same compound, the “% Availability (practical AUC)” value ([4]; Rectal 100 mg/kg, 100 mg/kg) was 105.7% and the “% Availability (theoretical AUC)” value ([4]; Rectal 100 mg/kg, 100 mg/kg) was 87.2%.
For `C=CCOc1ccc(CC(=O)O)cc1Cl` [Alclofenac-Arginine], the Solubility ([2]; listed as Arginine salt) was “scarcely water soluble”, the pH of solution ([5]; listed as Arginine salt) was 7.7 and the “SCORES at 24 hours, Average” value [6, 10] was 3.9. The “SCORES at 24 hours, Average” value [6, 11] was 1.6, the “SCORES at 24 hours, individual” value [6, 10] was 6.5 and 2.5 and 3 and 3.5 and the “SCORES at 24 hours, individual” value [6, 11] was 1.5 and 3.5 and 3 and 0. The Hygroscopicity ([7]; listed as Arginine salt) was “non-hygroscopic”.
With `C=CCOc1ccc(CC(=O)O)cc1Cl` [Alclofenac-Ethanolamine] the pH of solution [5, 12] was 7.5, the “SCORES at 24 hours, Average” value [6, 13] was 3 and the “SCORES at 24 hours, individual” value [6, 13] was 3 and 3.5 and 2.5. The tolerability on injection [8] was “poor tolerability” and the “Stability of the solution” value [7, 12] was “stable”.
In the case of `C=CCOc1ccc(CC(=O)O)cc1Cl` [Alclofenac-Methylglucose], the “SCORES at 24 hours, Average” value [6, 13] is reported as 2, the “SCORES at 24 hours, Average” value [6, 10] is reported as 5.4 and the “SCORES at 24 hours, individual” value [6, 13] is reported as 0 and 3 (2×). For the same compound, the “SCORES at 24 hours, individual” value [6, 10] was 2 and 5 and 10 and 4.5, the “Stability of the solution” value ([7]; listed as Methylglucamine salt) was “not very stable” and the Hygroscopicity ([7]; listed as Methylglucamine salt) was “very hygroscopic”.
For `C=CCOc1ccc(CC(=O)O)cc1Cl` [sodic salt of the acid], the tolerability of injection [9] is given as “scarcely tolerated”.
